The results in this text go back to patent publication US11497740B2, “Use of Jumonji C demethylase inhibitors for the treatment and prevention of chemotherapy resistance and radioresistance in cancer” (THE BOARD OF REGENTS OF THE UNIVERSITY OF TEXAS SYSTEM, priority 2016, dated 2022).

In one experiment the test system is H3K4me3 at DSBs. The experiment can be described thus: γH2AX immunoprecipitation, H3K4me3 at DSBs. Type of experiment: cell-based, Human. The note with it: JIB-04 4 h, IR 20 Gy. The protocol: For Histone demethylase activity determination 10×10^6 H1299 cells were seeded in P150 plates. Next day cells were preincubated with JIB-04 for 4 h and then irradiated with 20 Gy. Media was removed from cells, washed with PBS and fixed with 3% w/v PFA, 2% w/v sucrose in PBS for 1 min. Then cells were washed, scraped into media, pelleted by centrifugation (at 500 g for 2 min) and washed with Phosphatase inhibitor 1×, 1 μM Wortmannin (WM) and protease inhibitors 1× (Sigma). Cell pellets were re-suspended in 2.5× the packed cell volume (PCV) of Nucleosome Preparation Buffer (NPB, 10 mM HEPES [pH 7.9], 10 mM KCl, 1.0 mM CaCl2, 1.5 mM MgCl2, 0.34 M sucrose, 10% glycerol, 1 mM DTT, 0.1% Triton X-100) containing Phosphatase inhibitor, 1 μM Wortmannin (WM) and protease inhibitors (Sigma) and 100 U ml-1 micrococcal nuclease (MNase) and incubated at […] for 45 min (note: WM is required to block in vitro DNA-PK/ATM activation by MNase-produced DSBs). An equal volume of Nucleosome Solubilization Buffer (NSB=Nucleosome preparation buffer+2% [v/v] NP-40, 2% [v/v] Triton X-100, 600 mM NaCl) was then added. Samples were then vortexed, sonicated briefly and centrifuged at 10,000 rpm for 10 min. […] Protein levels on samples were quantified and equal amounts of protein run on 4-12% SDS acrylamide gels. […] Quantification was done using the using ImageJ software (National Institute of Health, NIH)

The test system of the next experiment is H1693 T8. Put plainly: MTS cell viability assay, H1693 T8 resistant variant vs parental. Type of experiment: cell-based, human. The settings on record: H1693 T8 vs parental. The protocol:
NSCLC lines were treated with paclitaxel+carboplatin combination, given in a ˜2:3 wt/wt ratio, to mirror the clinical dosage values of ˜225 mg/m2 and ˜330 mg/m2, paclitaxel and carboplatin respectively. Note that considering the molecular weights of the two drugs, this translates to approximately a 1 to 3.4 molar ratio. Drugs were given in cycles, following a drug on/drug off treatment scheme. Each cycle consisted of 4-5 days of drug treatment and drug-free culturing for about 1-2 weeks or more to allow the surviving cells to repopulate the plate. […] Untreated parental cells were simultaneously maintained at all times for comparison. Cell viability was assessed in 96-well plates using standard MTS assays (Promega). Treatment duration in MTS assays was 4 days. Drugs were tested in two- or four-fold serial dilutions, totaling 8 different drug concentrations, with 8 replicates per concentration. Response was validated in multiple replicate plates (n≥3).
Cell viability was assessed by standard MTS assays using Promega's CellTiter reagents. Eight drug concentrations given as two- or four-fold dilutions were tested for each chemotherapeutic agent. In addition, each experiment contained eight replicates per concentration and the entire assay was performed in multiple replicates (n≥3).
On the technique in general: Tetrazolium assays rely on reduction of a dye to a coloured formazan, in cell work by metabolically active cells.

In a further experiment the test system is cell cycle distribution. The experiment can be described thus: Cell cycle analysis (PI staining). It counts as cell-based, Human. The note with it: H1299 and A549; JIB-04 4 h with or without IR (2 Gy). The protocol:
NSCLCs were seeded in 6 wells plate, 24 h latter cells were pretreated with JIB-04 or DMSO for 4 h and exposed to a total dose of 2 Gy. Then cells were collected and fixed using 75% ethanol at […] for at least 24 hours. The cells were resuspended with PBS and incubated with 20 μl 1 mg/ml RNase A (Sigma) and 25 μg ml/ml propidium iodide (Sigma) for 30 min at room temperature. Experiment was done by triplicate, 20,000 cells were counted and the proportion of cells of different phase was analyzed using the software Flowjo.

The test system of experiment [1] is homologous recombination (HR). The experiment can be described thus: Green fluorescent protein HR reporter assay, H1299. The note with it: H1299 cells with integrated construct. It counts as cell-based, Human. Here is the method:
The green fluorescent protein assay was performed as described by Seluanov et al. To generate reporter cell lines 2 million H1299 cells were transfected with 0.5 μg of linearized NHEJ-I, or HR reporter constructs using the Amaxa Nucleofector; program X-005. G418, at 1 mg/ml, was added to the media 1 day post-transfection. Then Transient expression of the I-SceI endonuclease was used to generate a DNA DSB at the integrated GFP gene sequences. Briefly, H1299 cells containing the NHEJ or the HR constructs treated by 4 h with JIB-04 or DMSO were transfected with the pCMV3xnls-I-SceI (5 μg, functional endonuclease) and a pN1-mCherry plasmid (0.05 μg) as transfection control as previously stated. For the analysis of NHEJ and HR cells were harvested, resuspended in ˜1 ml 1×PBS, put on ice, and run on a BD FACScan instrument. GFP and mCherry fluorescence was analyzed using FlowJo software. Red-versus-green was plotted and DNA repair efficiency was calculated from the number of GFP-positive cells divided by the number of cells mCherry-positive cells.

Another experiment relates to H3K9me3 demethylases. The experiment can be described thus: Histone demethylase activity in H1299 cellular extracts (H3K9me3). It counts as cell-based, Human. The settings on record: JIB-04 4 h, no IR. The protocol: For Histone demethylase activity determination 2×10^6 H1299 cells were seeded in P150 plates. After 24 h cells were pretreated with JIB-04 or DMSO for 4 h, irradiated with a total dose of 8 Gy of radiation. Then cells were sonicated (3×4 sec) and equal amounts of protein were incubated with a histone H3K4me3 or H3K9me3 substrate in a reaction buffer containing cofactors for 1 h at 37° C. Finally specific immune-detection of the H3K4me2 or H3K9me2 product using the Epigentek kit P-3081 for H3K9me3 demethylation and P-3083 for H3K4me3 demethylation. Background readings were given by heat inactivated extracts.

The next experiment concerns HR repair in U2OS cells. Put plainly: GFP HR reporter assay, U2OS cells. Type of experiment: cell-based. Here is the method:
FIGS. 29A-29B. […] FIG. 29A: U2OS cells were transfected with the NHEJ or HR constructs (0.25 ug and 0.5 ug respectively) and a pN1-mCherry plasmid (0.05 ug). Then cells were seeded in the presence or absence of JIB-04. Cells were analyzed by flow cytometry for GFP expression 12 h and 24 h after transfection using green-versus-red fluorescent plot. 10,000 cells were analyzed in each sample and NHEJ or HR Repair Frequency (% GFP+ cells/% mCherry+ cells) plotted. Average+/−SEM of triplicates for one of two representative experiments is shown. ***p<0.001 vs control (Kruskal-Wallis). FIG. 29B: Representative FACS traces for the analysis of NHEJ and HR shown in A.

SMILES strings stand for the structures. Some results are limits rather than exact numbers.

For `Clc1ccc(N/N=C(\c2ccccc2)c2ccccn2)nc1` [JIB-04], the “H3K4me3 at sites of DNA damage marked by γH2AX” value in the experiment with H3K4me3 at DSBs was “increased H3K4me3”. Further, the “fold increased sensitivity vs parental” value in the experiment on H1693 T8 is listed as about 3 fold. For the same molecule, the cell cycle distribution entry in the experiment on cell cycle distribution is “do not Affect Cell Cycle Distribution”. Moreover, the HR repair efficiency in experiment [1] was ≤ 50 % of normal levels. For the same molecule, the “basal H3K9me3 demethylase activity” value with H3K9me3 demethylases is on record as “did not have any effects on basal activity”. Moreover, in the experiment on HR repair in U2OS cells, the HR repair entry is “inhibits HR repair”.
